{"source": "patent US8535950B2", "about": "“Use of perfluoropolymer submicrometric latexes in the determination of molecular interactions by laser light scattering (LLS)” (Solvay Solexis S.p.A., priority 2005, dated 2013)", "test_system": "peptide sequence L-Lys-D-Ala-D-Ala", "test": "Binding constant by laser light scattering (LLS) on perfluoropolymer latex particles coated with receptor-ended surfactant", "source_text": "More specifically the use comprises the following steps: • a) addition to a colloidal aqueous suspension or latex of particles having an average diameter between 5 and 200 nm, preferably between 40 and 80 nm, formed of a perfluorinated, semicrystalline or amorphous polymer, of a sequence of known volumes of an aqueous solution of a mixture containing from 50% to 99.5% by weight of an amphiphylic non ionic surfactant and from 0.5 to 50% by weight of a surfactant ended with a receptor, measuring after each addition the intensity of the scattered light by the suspension by Laser Scattering Light (LLS) and reporting it on a diagram in function of the progressively added solution volume, until reaching an asymptotic value (Ir); • b) addition to the suspension obtained in step a) of a sequence of known volumes of a ligand aqueous solution, measuring after each addition the intensity of the scattered light by the suspension by Laser Scattering Light (LLS) its reporting on a diagram in function of the progressively added solution volume (expressed as molar concentration [T0]), until reaching an asymptotic value and fitting the scattered light intensity data (I) in function of the ligand additions ([T0]) with formula (1) to obtain the receptor-ligand binding constant (K), wherein formula (1) is: […]", "note": "Structures can show the parent of a compound that is named as a salt."}
{"molecule": "CN[C@H](CC(C)C)C(=O)N[C@H]1C(=O)N[C@@H](CC(N)=O)C(=O)N[C@H]2C(=O)N[C@H]3C(=O)N[C@H](C(=O)N[C@H](C(=O)O)c4cc(O)cc(O)c4-c4cc3ccc4O)[C@H](O)c3ccc(c(Cl)c3)Oc3cc2cc(c3O[C@@H]2O[C@H](CO)[C@@H](O)[C@H](O)[C@H]2O[C@H]2C[C@](C)(N)[C@H](O)[C@H](C)O2)Oc2ccc(cc2Cl)[C@H]1O", "note": "[Vancomycin, Vancomycin hydrochloride hydrate]", "values": [{"measurement": "receptor-ligand binding constant", "setting": "Example 1: 0.1% latex, 78 nm particles of TFE copolymer with 40% by moles perfluoromethylvinylether, 0.4 millimole Vancomycin solution in 6 microlitre portions, Langmuir fit", "value": "1.5e+06", "unit": "mol⁻¹"}, {"measurement": "receptor-ligand binding constant", "setting": "Example 2: 0.1% latex, 40 nm particles of TFE copolymer with 30% by moles TTD, 0.9 millimolar Vancomycin in 6 microlitre portions", "value": "1.1e+06", "unit": "mol⁻¹"}]}
